From patent publication US7357832B2, “Water base pigment ink for ink-jet recording, ink cartridge accommodating the same, and ink-jet recording method” (Brother Kogyo Kabushiki Kaisha, priority 2004, dated 2008) come the findings set out here.

The nature of this data set: saturation vapor pressure. In kind it is physicochemical.

Each structure is given as a SMILES string.

`CCCOCC(C)O` (centres unmarked) [PGPE, propylene glycol-n-propyl ether]: the Saturation vapor pressure is recorded as 2.21 hPa.

For the compound `CCCOC(C)COC(C)CO` (centres unmarked) [DPGPE, dipropylene glycol-n-propyl ether], the Saturation vapor pressure stood at 0.03 hPa. As for `COCC(C)OC(C)=O` (centres unmarked) [PGMEA, propylene glycol methyl ether acetate], the figure is 5 hPa; as for `COCC(C)O` (centres unmarked) [PGME, propylene glycol methyl ether], 8.71 hPa; as for `CCOCC(C)O` (centres unmarked) [PGEE, propylene glycol ethyl ether], 9.4 hPa.
